The text below walks through data of patent publication US20200129450A1, “COMPOSITION COMPRISING OSMUNDACETONE OR PHARMACEUTICALLY ACCEPTABLE SALT THEREOF FOR PREVENTING OR TREATING BONE DISEASE” (KORPHARM CO., LTD., priority 2016, published 2020).

Where only a bound is given, the exact number is not on record here.

Assay [1] concerns ALP activity in MC3T3-E1. The assay is described as follows: Measurement of ALP activity in MC3T3-E1. The format is cell-based, mouse. As to conditions: 1 μM (positive control, printed in the 10 μM column), MC3T3-E1. As to the method: ALP activity was assessed using Quantichrom ALP Assay Kit (Bioassay Systems, Hayward, Calif., USA) according to manufacturer's instructions.
Briefly, 3×10^3 MC3T3-E1 cells were dispensed in a 96-well plate together with […] of complete α-MEM containing ascorbic acid (50 μg/mL) and 10 mM β-glycerophosphate per well. Here, osmundacetone (10 μM and 50 μM) was added or not added, and the medium was exchanged every 3-4 days.
On day 14 of the incubation, the colorimetric change due to ALP activity in the cell fraction was measured using a spectrophotometer plate reader (Molecular Devices, Sunnyvale, Calif., USA) at 405 nm (Kim et al., 2016). The % activation of ALP activity was shown by comparing ALP activity of cells treated with an experimental compound and ALP activity of the non-treated control cells.

Assay [2] has as its system osteoclasts differentiated from mouse bone marrow cells. The assay is described as follows: TRAP assay, osteoclast proliferation and differentiation inhibitory activity. In kind it is cell-based. As to the method: Bone marrow cells were collected from the femur and shin bones of 5-8 week old male C57BL/6 mice. Muscles were removed from the bones, and stored in cold phosphate buffered saline (PBS; # CAP08-050, GenDEPOT, Katy, Tex., USA).
Both ends of each bone were cut, and the bone marrow was flushed with a flushing medium (serum-free α-MEM, 2 mM ethylenediaminetetraacetic acid) kept cool, using a 25 G needle.
Bone marrow cells were collected by centrifugation at 3,000 rpm for 3 min using Labogene 1248R (Labogene, Lynge, Denmark), and then resuspended in a wash medium. Thereafter, 8 mL of the collected bone marrow cells were overlaid on 6 mL of a lymphocyte isolation medium (LSM; #50494, MP Biomedicals, Santa Ana, Calif., USA), followed by centrifugation at 1,600 rpm for 20 minutes, thereby isolating mononuclear cells.
The mononuclear cell bands were collected from the media interface, and incubated using complete α-MEM (containing 10% fatal bovine serum (FBS; Capricorn Scientific, Ebsdorfergrund, Germany) and 1% (v/v) antibiotic (including 100 U/mL penicillin G and […] streptomycin)) in the conditions of 37° C. and 5% CO2 while the medium was exchanged every three days.
In order to promote the differentiation of osteoclasts, 1×10^5 cells were incubated in 0.5 mL of the medium per well in a 48-well plate, in the presence of osteoclast differentiation factors, M-CSF (60 ng/mL) and RANKL (150 ng/mL), purchased from PeproTec (Seoul, Korea). As known, macrophages/monocytes derived from one bone marrow differentiated into mature multinucleated osteoclasts after 6 days (Gurt et al., 2015).
The tibia and femur of 6-8 week old male C57BL/6 mice were aseptically resected, and bone marrow cells were aseptically collected using a syringe (21 G, Korea Green Cross). The bone marrow cells were floated in 500 μL of α-MEM medium (Gibco BRL Co.) containing sodium bicarbonate (2.0 g/L), streptomycin (100 mg/L), and penicillin ([…]), dispensed in a 48-well plate, and assayed in triplicate. Mononuclear cells as precursor cells of osteoclasts were treated with RANKL and M-CSF as differentiation promoting factors, and thus differentiated into osteoclasts within 5-7 days.
2-1) Sample preparation: The hot-water extract, EA extract, or fraction of Osmunda japonica were prepared by the same methods as in section 1 of <Example 1>. The EA-2 extract was dissolved in a minimum amount of DMSO, and then diluted with water to 70% of the original volume of the hot-water extract assuming that the yield of EA-2 extraction was approximately 70%. 2-2) Sample administration: The sample was continuously administered to a medium at 1:20 (v/v; 25 μL of the sample per 500 μL of the medium) from day 1 of incubation of bone marrow cells, while the medium was exchanged every 2-3 days. 2-3) Measurement of osteoclast differentiation Osteoclasts were defined by TRAP-positive multinucleated cells stained with TRAP. As for TRAP stain solution, 5 mg of naphthol AS-MS phosphate (Sigma N-4875) as a base and 25 mg of Fast Red Violet LB salt as a color developing reagent were dissolved in about 0.5 mL of N,N-dimethylformamide, and then mixed with 0.1N NaHCO3 buffer solution (50 mL) containing 50 mM tartaric acid. The reaction reagent was stored in a refrigerator before use.
After bone marrow cells were incubated in a medium containing differentiation promoting factors for 7 days, the medium was removed, and the cells were washed with PBS, and then immobilized with PBS containing 10% formalin for 2-5 minutes. Thereafter, the cells were immobilized with a 1:1 mixture solution of ethanol and acetone, followed by drying. The immobilized cells were treated with the TRAP stain solution for 15 minutes, and washed with PBS, and then the degree of cell staining was observed by a microscope.
In the microscope field of view, cells having two or more nuclei in the TRAP-positive cells were determined to be osteoclasts, and the number of cells was measured. […]

Consider “Parathyroid hormone-related peptide [reference compound]”, for which the “% Activation of ALP activity” value in assay [1] was found to be 138 ± 19%.

For orientation: IC50 means the concentration needed to halve the response being measured. Low readings indicate inhibition by little substance, high ones a need for much substance. As for `NCCCC(O)(P(=O)(O)O)P(=O)(O)O` [Fosamax, alendronate, reference compound], the “formation of giant osteoclasts, number compared with the positive control group” value in assay [2] (1 μM) is reported as “smaller compared with the positive control group”. Also, the IC50 in assay [2] (Mus musculus, Osteoclast, tested at 1, 4, 7 and 10 μM, TRAP-positive multinucleated cells) was at most 4 µM.
